Experimental data reported in US6211151A, “Peptides with organo-protective activity, a process for preparation thereof and their use in therapy” (priority 1992, dated 2001).
No end group written: not given here.

Columns and labels:
female mice = test: Acute toxicity; assay type: in vivo; settings: 8, 25 and 50 μg/kg b.w., i.v.; observed 15 days
Method: Acute toxicity of synthetic peptides was determined in female mice (weight ca. 20 g). Groups of 6 animals were used for each experiment and control.
Peptides Seq.Id.No: 2,3,4 and 6 were applied in a dosage of 8, 25 and 50 μg/kg b.w., i.v. Control group was treated with saline (0.9%, 5.0 ml/kg b.w.).

[1] = tested on: NMRI-Hannover female mice; test: Influence on vitamin A induced malformation; assay type: in vivo; settings: peptide alone, 10 μg or 10 ng/kg b.w., i.p., tenth day of pregnancy
Method: 12. Influence on induced malformation
NMRI-Hannover female mice, two months old, 25 g b.w., but not previously exposed to copulation were used in all experiments. The female mice in the estrus phase were mated overnight with well experienced healthy male mice. The mice were sacrified after 20 days of pregnancy.
Vitamin A was applied in a dose of 15700 U/kg b.w., i.m., at tenth day of the pregnancy (0.05 ml/kg b.w.). Peptide Seq.Id.No: 4 was given simultaneously in a dosage of 10 μg or 10 ng/kg b.w.,i.p.
Control: saline 5.0 ml/kg b.w., i.p.
Animals non treated with vitamin A receiving at the same time i.p. saline or peptide 4 in the same dosage served as healthy control.

Wistar male rats = test: Turpentine induced buccal edemas; assay type: in vivo, rat; settings: 10 μg/kg b.w., i.p. and i.g., 1 hour before turpentine; measured 24 hours after induction
Method: 3. Turpentine induced buccal edemas
Wistar male rats (180-240 g), N=10 in each group. Turpentine was given intramucosally 0.02 ml/rat. Control: 0.9% saline intramucosally (0.02 ml/rat, 2×). Peptides Seq. Id. No: 2 and 4 were applied in a dose of 10 μg and 10 ng/kg, i.p. and i.g., 1 hour before turpentine. Buccal edemas were measured 24 hours after edema induction. Statistical analysis: Mann-Whitney test. The investigated peptides were effective in a dosage of 10 μg/kg b.w.

[2] = tested on: Albino Wistar (male) rats; test: Gastric ulcer induced by restraint stress; assay type: in vivo, rat; settings: 10 μg or 10 ng/kg b.w., i.p. or i.g., 1 hour before 48 hours immobilization; even at 10 ng/kg
Method: 1.) Gastric ulcer induced by restraint stress
Albino Wistar (male) rats (180-200 g), were used in the experiments. All the animals were immobilized in a supine position for 48 hours at room temperature. Immediately thereafter they were sacrified and the lesions measured. The peptides Seq. Id. No: 4, 6 and 2 were applied in dosage of 10 μg or 10 ng/kg b.w., i.p. or i.g. 1 hour before noxious procedure.

| Substance | signs of toxicity or death (female mice) | malformation in animals not treated with vitamin A [1] | effect on buccal edemas (Wistar male rats) | protection against restraint stress gastric lesions [2] |
| --- | --- | --- | --- | --- |
| EPPPLKPA [Seq. Id. No: 6] | no signs of toxicity or death | – | – | – |
| LEPPPLKPADALGV [Seq. Id. No: 4] | no signs of toxicity or death | No malformation | – | – |
| LEPPPLKPADDALGV [Seq.Id.No: 3] | no signs of toxicity or death | – | – | – |
| Seq. Id. No: 2: synthetic peptide of 8 to 15 amino acid residues with BPC-type activity; sequence not printed in this text (GEPPPGKPADDAGLV) | no signs of toxicity or death | – | effective | strongly protective |
